Reference: US20220079895A1, “COMPOSITION FOR PREVENTING OR TREATING LIVER DISEASES” (AceBiomed, Inc., priority 2020, published 2022)

Experiments:
collagen I [1] = assay: expression of collagen I increased by TGF-β1 in hepatocytes AML12; assay type: cell-based, mouse; settings: AML12 cells; for additive interaction with colchicine in inhibiting the expression of collagen I: 5 nM colchicine + 30 μg/ml DPP-4 inhibitor, TGF-β1 (5 ng/ml)
Protocol: (§1) Mouse hepatocytes, AML12 cells, were incubated at 37° C., 95% air and 5% CO2 in a DMEM/F12 medium containing 5 μg/ml insulin, 5 μg/ml transferrin, 5 ng/ml selenium, 40 ng/ml dexamethasone, 10% fetal bovine serum (FBS) and 1% penicillin/streptomycin. AML12 cells pre-treated with 5 nM of colchicine and 30 μg/ml of a dipeptidyl peptidase-4 (DPP-4) inhibitor were treated with TGF-β1 (5 ng/ml) or 0.2 mM of palmitate after 8 hours, and further incubated for additional 16 hours.
(§2) Total RNA was extracted using an RNeasy mini kit (Qiagen), and then synthesized into cDNA using a high-capacity cDNA reverse transcription kit (Thermo Fisher). The same amount of cDNA was amplified using a SYBR™ green PCR master mix and a 10 pM primer set for each gene. The amplification process was subjected to an initial denaturation process at 95° C. for 5 minutes, and repetitively replication at 95° C. for 10 seconds, 58.5° C. for 10 seconds, and 72° C. for 10 seconds for a total of 40 times.

SREBP1 [2] = assay: expression of SREBP1 induced by palmitate in hepatocytes AML12; assay type: cell-based, mouse; settings: AML12 cells; for additive interaction with colchicine in inhibiting the expression of SREBP1: 5 nM colchicine + 30 μg/ml DPP-4 inhibitor, 0.2 mM palmitate
Protocol: as §1, §2

NASH-induced model mouse [3] = assay: blood biochemical test: serum AST, NASH-induced model; assay type: in vivo; settings: for AST: serum, HFD + Colchicine alone
Protocol: The activity of aspartate aminotransferase (AST) of mice was measured using an AST activity assay kit (Abcam).

NASH-induced model mouse [4] = assay: superoxide (DHE) in liver tissues, NASH-induced model; assay type: in vivo; settings: high fat diet 30 weeks
Protocol: In order to measure production of superoxide in liver tissues of mice, dihydroethidium (DHE) was used as a superoxide fluorescent indicator. In summary, deparaffinized liver tissue slides were reacted at 37° C. for 30 minutes with 10 μM DHE in a light-shielded humidity chamber. After the reaction, fluorescence indicating DHE was measured through a filter in a wavelength band of 580 nm in an Olympus FV1000 fluorescence microscope.

NASH-induced model mouse [5] = assay: blood biochemical test: serum total cholesterol, NASH-induced model; assay type: in vivo; settings: for Total cholesterol: serum, HFD + Colchicine alone
Protocol: A total cholesterol amount of mice was measured using a Total cholesterol assay kit (Cell Biolabs). […] Thereafter, 50 μl of a cholesterol reaction reagent was added, and the reaction was performed at 37° C. for 45 minutes by shielding light. For the sample after the reaction, absorbance was measured at 540 to 570 nm using a microplate reader.

[6] = test system: α-SMA (α-smooth muscle actin); assay: expression of fibrosis-related gene α-SMA in liver tissues, NASH-induced model; assay type: in vivo, mouse; settings: high fat diet 30 weeks
Protocol: as §2

[7] = test system: Dgat (Diglyceride acyltransferase); assay: expression of fat accumulation-related gene Dgat in liver tissues, NASH-induced model; assay type: in vivo, mouse; settings: high fat diet 30 weeks
Protocol: as §2

IL-6 = assay: expression of inflammation-related gene IL-6 in liver tissues, NASH-induced model; assay type: in vivo, mouse; settings: high fat diet 30 weeks
Protocol: as §2

collagen I [8] = assay: expression of fibrosis-related gene collagen I in liver tissues, NASH-induced model; assay type: in vivo, mouse; settings: high fat diet 30 weeks
Protocol: as §2

TGF-β1 = assay: expression of fibrosis-related gene TGF-β1 in liver tissues, NASH-induced model; assay type: in vivo, mouse; settings: high fat diet 30 weeks
Protocol: as §2

NASH-induced model mouse [9] = assay: blood biochemical test: serum bilirubin, NASH-induced model; settings: for Bilirubin: serum, HFD + Colchicine alone
TNF-α = assay: expression of inflammation-related gene TNF-α in liver tissues, NASH-induced model; assay type: in vivo, mouse; settings: high fat diet 30 weeks
Protocol: as §2

SREBP1 [10] = assay: expression of fat accumulation-related gene SREBP1 in liver tissues, NASH-induced model; assay type: in vivo, mouse; settings: high fat diet 30 weeks
Protocol: as §2

IL-1β [11] = assay: expression of inflammation-related gene IL-1β in liver tissues, NASH-induced model; assay type: in vivo, mouse; settings: high fat diet 30 weeks
Protocol: as §2

NASH-induced model mouse [12] = assay: blood biochemical test: serum triglyceride, NASH-induced model; assay type: in vivo; settings: for Triglyceride: serum, HFD + Colchicine alone
Protocol: Triglyceride levels in mice were measured using an EZ-Triglyceride quantification assay kit (Dogen Bio). 1 ml of 5% NP-40 was added to a mouse serum sample, homogenized on ice, and then sufficiently cooled at room temperature. The sample in which all triglycerides were dissolved by heating once more was centrifuged at 13,000 rpm for 2 minutes, and then an insoluble material was removed, and the sample was diluted 10-fold with distilled water before assay. 2 μl of lipase was added to the sample dispensed in a 96 well plate by 90 μl and reacted for 20 minutes at room temperature, and then the reaction mixture was added to each sample by 50 μl, and further reacted at room temperature for 30 minutes in a light-shielded state. Thereafter, absorbance was measured at 570 nm using a microplate reader.

[13] = test system: ApoA1 (Apolipoprotein A1); assay: expression of fat accumulation-related gene ApoA1 in liver tissues, NASH-induced model; assay type: in vivo, mouse; settings: high fat diet 30 weeks
Protocol: as §2

NASH-induced model mouse [14] = assay: hydroxyproline in liver tissues, NASH-induced model; assay type: in vivo; settings: high fat diet 30 weeks
Protocol: 100 mg of liver tissue was homogenized with physiological saline, and then a liver tissue supernatant was separated. The separated supernatant was hydrolyzed at 120° C. for 3 hours by adding the same amount of 12 N HCl. The cooled sample was vortexed and then centrifuged at 10,000 g for 3 minutes, and absorbance was measured at 550 nm using a final microplate reader by using a hydroxyproline assay kit.

[15] = test system: nonalcoholic steatohepatitis (NASH)-induced model mouse; assay: H&E staining of liver tissues, fat accumulation, NASH-induced model; assay type: in vivo; settings: high fat diet 30 weeks
Protocol: For H&E staining, deparaffinized tissues were reacted with a 50% hematoxylin solution at room temperature for 20 minutes, reacted with 1% HCl for 1 second, and then immediately transferred to a 0.5% eosin solution and stained for 20 minutes. Thereafter, the tissue was washed with distilled water, reacted with graded alcohol and finally dehydrated with xylene. The dehydrated tissue was fixed on a coverslip using a permount.

NASH-induced model mouse [16] = assay: blood biochemical test: serum ALT, NASH-induced model; assay type: in vivo; settings: for ALT: serum, HFD + Colchicine alone
Protocol: The activity of alanine aminotransferase (ALT) of mice was measured using an ALT activity assay kit (Sigma-Aldrich).

IL-1β [17] = assay: expression of IL-1β induced by palmitate in hepatocytes AML12; assay type: cell-based, mouse; settings: AML12 cells
Protocol: as §1, §2

[18] = colchicine 40 μg/kg alone, orally once a day
[19] = 5 nM colchicine alone, 0.2 mM palmitate after 8 hours, additional 16 hours
[20] = high-fat diet 30 weeks, sitagliptin co-administered with colchicine by concentration
[21] = co-administration with colchicine, for each sitagliptin concentration
[22] = co-administration with colchicine 40 μg/kg, for each sitagliptin concentration

In the case of `Cc1cc(N2CCN([C@@H]3CN[C@H](C(=O)N4CCSC4)C3)CC2)n(-c2ccccc2)n1` [teneligliptin], the “additive interaction with colchicine in inhibiting the expression of collagen I” value (collagen I [1]) is reported as “slight additive interaction” and the “additive interaction with colchicine in inhibiting the expression of SREBP1” value (SREBP1 [2]) is reported as “excluding”.

For `N#C[C@@H]1CCCN1C(=O)CNC12CC3CC(CC(O)(C3)C1)C2` [vildagliptin], the “additive interaction with colchicine in inhibiting the expression of collagen I” value (collagen I [1]) was “slight additive interaction”.

In the case of `COc1cc2c(c(OC)c1OC)-c1ccc(OC)c(=O)cc1[C@@H](NC(C)=O)CC2` [Colchicine, colchicine], the AST (NASH-induced model mouse [3]) is reported as 200.7 ± 2.74 U/L, the AST (NASH-induced model mouse [3]; listed as colchicine) is reported as “decreased” and the “production of superoxide in liver tissues” value (NASH-induced model mouse [4]; colchicine 40 μg/kg alone) is reported as “reduced”. For the same compound, the Total cholesterol (NASH-induced model mouse [5]) was 264.8 ± 0.87 mg/dL, the Total cholesterol (NASH-induced model mouse [5]; listed as colchicine) was “decreased” and the “expression of collagen I increased by TGF-β1” value (collagen I [1]; 5 nM colchicine alone, TGF-β1 (5 ng/ml) after 8 hours, additional 16 hours) was “reduced”. For the same compound, the “expression of α-SMA in liver tissues” value ([6]; colchicine 40 μg/kg alone) was “reduced”, the “expression of Dgat in liver tissues” value ([7]; colchicine 40 μg/kg alone) was “reduced” and the “expression of IL-6 in liver tissues” value (IL-6; colchicine 40 μg/kg alone) was “reduced”. For the same compound, the “expression of collagen I in liver tissues” value (collagen I [8]; colchicine 40 μg/kg alone) was “reduced”, the “expression of TGF-β1 in liver tissues” value (TGF-β1; colchicine 40 μg/kg alone) was “reduced” and the Bilirubin (NASH-induced model mouse [9]) was 0.57 ± 0.05 mg/dL. For the same compound, the Bilirubin (NASH-induced model mouse [9]; listed as colchicine) was “decreased”, the “expression of TNF-α in liver tissues” value (TNF-α; colchicine 40 μg/kg alone) was “reduced” and the “expression of SREBP1 in liver tissues” value (SREBP1 [10]; colchicine 40 μg/kg alone) was “reduced”. The “expression of IL-1β in liver tissues” value (IL-1β [11]; colchicine 40 μg/kg alone) was “reduced”, the Triglyceride (NASH-induced model mouse [12]) was 201.9 ± 0.27 mg/dL and the Triglyceride (NASH-induced model mouse [12]; listed as colchicine) was “decreased”. The “expression of ApoA1 in liver tissues” value ([13]; colchicine 40 μg/kg alone) was “reduced”, the “accumulation of hydroxyproline in liver tissues” value (NASH-induced model mouse [14]; [18]) was “reduced” and the “expression of SREBP1 induced by palmitate” value (SREBP1 [2]; [19]) was “reduced”. For the same compound, the “fat accumulation in liver tissues (H&E)” value [15, 18] was “slightly reduced”, the ALT (NASH-induced model mouse [16]) was 154.7 ± 4.24 U/L and the ALT (NASH-induced model mouse [16]; listed as colchicine) was “decreased”. For the same compound, the “expression of IL-1β induced by palmitate” value (IL-1β [17]; [19]) was “reduced”.

`CC(C)(C)OC[C@@H]1C(=O)NCCN1C(=O)C[C@H](N)Cc1cc(F)c(F)cc1F` [evogliptin] was tested, and the “additive interaction with colchicine in inhibiting the expression of collagen I” value (collagen I [1]) was “slight additive interaction”.

For `N[C@@H](CC(=O)N1CCn2c(nnc2C(F)(F)F)C1)Cc1cc(F)c(F)cc1F` [sitagliptin], the “level of AST in serum, additive interaction compared with colchicine alone” value (NASH-induced model mouse [3]; [20]) was “decreases further”, the “effect of reducing the production of superoxide, interaction with colchicine” value (NASH-induced model mouse [4]; [21]) was “additive interaction” and the “level of cholesterol in serum, additive interaction compared with colchicine alone” value (NASH-induced model mouse [5]; [20]) was “decreases further”. For the same compound, the “additive interaction with colchicine in inhibiting the expression of collagen I” value (collagen I [1]) was “most excellent additive interaction”, the “effect of reducing the expression of α-SMA, interaction with colchicine” value [6, 21] was “additive interaction” and the “effect of reducing the expression of Dgat, interaction with colchicine” value [7, 21] was “additive interaction”. For the same compound, the “effect of reducing the expression of IL-6, interaction with colchicine” value (IL-6; [21]) was “additive interaction”, the “effect of reducing the expression of collagen I, interaction with colchicine” value (collagen I [8]; [21]) was “additive interaction” and the “effect of reducing the expression of TGF-β1, interaction with colchicine” value (TGF-β1; [21]) was “additive interaction”. The “level of bilirubin in serum, additive interaction compared with colchicine alone” value (NASH-induced model mouse [9]; [20]) was “decreases further”, the “effect of reducing the expression of TNF-α, interaction with colchicine” value (TNF-α; [21]) was “additive interaction” and the “effect of reducing the expression of SREBP1, interaction with colchicine” value (SREBP1 [10]; [21]) was “additive interaction”. The “effect of reducing the expression of IL-1β, interaction with colchicine” value (IL-1β [11]; [21]) was “additive interaction”, the “level of triglyceride in serum, additive interaction compared with colchicine alone” value (NASH-induced model mouse [12]; [20]) was “decreases further” and the “effect of reducing the expression of ApoA1, interaction with colchicine” value [13, 21] was “additive interaction”. For the same compound, the “hydroxyproline inhibitory effect, interaction with colchicine” value (NASH-induced model mouse [14]; [22]) was “additive interaction”, the “additive interaction with colchicine in inhibiting the expression of SREBP1” value (SREBP1 [2]) was “most excellent additive interaction” and the “steatosis reduction effect, interaction with colchicine” value [15, 22] was “additive interaction”. The “level of ALT in serum, additive interaction compared with colchicine alone” value (NASH-induced model mouse [16]; [20]) was “decreases further” and the “additive interaction with colchicine in inhibiting the expression of IL-1β” value (IL-1β [17]; 5 nM colchicine + 30 μg/ml DPP-4 inhibitor, 0.2 mM palmitate) was “most excellent additive interaction”.
